What was measured:
[1] = target: apolipoprotein(a), [apo(a)], apolipoproteinB-100, [apoB-100], coupling reaction that generates Lp(a) (Homo sapiens, UniProt P04114+P08519); test: LPABC screen: lipoprotein(a) biochemical coupling assay, Lp(a) content by ELISA; conditions: recombinant apo(a) 17-kringle (293 cell media) + HepG2 conditioned media, 67 minutes, 37° C., 0.3 to 50 μM compound; read-out: Lp ABC IC50
Experimental: LPABC Screen The lipoprotein(a), [Lp(a)], biochemical coupling assay (LPABC) is used to characterize inhibitors of the apolipoprotein(a), [apo(a)], apolipoproteinB-100, [apoB-100], coupling reaction that generates Lp(a). Conditioned media from 293 cells (ATCC CRL-1573), permanently transfected with an apo(a) 17-kringle cDNA expression construct (pcDNA-AMP, In Vitrogen, Carlsbad, Calif.) using standard molecular biology techniques, was used as a source of recombinant apo(a) is diluted 1:3 with phosphate buffered saline (PBS) and 90 μL is pipetted into each well of a 96-well plate and placed into a 37° C. incubator for 10 minutes. Twenty microliters of a 0.3 to 50 μM solution of a compound of the present invention in PBS is added to the warmed plate. Ninety microliters of HepG2 (ATCC HB-8065) cell conditioned media diluted 1:3 with PBS is added to the apo(a)/compound mixture and mixed by pipetting up and down 5 times. The reaction is incubated for 67 minutes in a 37° C. incubator. A 100 μL aliquot of the reaction is removed and assayed for its Lp(a) content by an enzyme linked immunosorbent assay (ELISA).

[2] = tested on: Lp(a) production in HepG2^K17 cells; test: LPA3 screen: inhibition of Lp(a) production in transfected HepG2 cells, Lp(a) in media by ELISA; format: cell-based; conditions: Homo sapiens, 8 hours, 0.3 to 50 μM compound, Lp(a) normalized for total protein, read-out: Lp A3 IC50
Experimental: The LPA3 screen is used to identify compounds that inhibit Lp(a) production. This screen employs permanently transfected HepG2 cells (HepG2^K17) that are generated using an apo(a) 17-kringle cDNA expression construct (pcDNA-AMP, In Vitrogen, Carlsbad, Calif.) in accordance with methods that are well-known in molecular biology.
HepG2^K17 cells are seeded in 96-well plates at a density of 75,000 cells per well in 0.25 mL of Dulbecco's Modified Eagle Media (DMEM) containing 10% fetal bovine serum (FBS). Seeded plates are incubated overnight in a 37° C., 5% CO2/95% 02 incubator. The media is removed, replaced with (1) fresh media, or (2) fresh media plus 0.3 to 50 μM of a compound of the present invention in 20 μL of PBS, and the plates returned to the incubator for 8 hours. After the additional 8 hours of incubation, Lp(a) is assayed in the media by ELISA. Cells are digested with 0.5N NaOH overnight and assayed for total protein. Lp(a) values are normalized for total protein content.

| Structure (SMILES) | IC50 [1] | IC50 [2] |
| --- | --- | --- |
| CC(C)c1ccc(C(=O)N(Cc2ccccc2-c2ccccc2)c2cccnc2)cc1 [Example 72, N-Biphenyl-2-ylmethyl-4-isopropyl-N-pyridin-3-yl-benzamide] | > 50 µM | 37.1 µM |
| CCOc1ccccc1C(=O)N(Cc1ccc2c(c1)C(C)(C)CCC2(C)C)c1cccnc1 [Example 73, 2-Ethoxy-N-pyridin-3-yl-N-(5,5,8,8-tetramethyl-5,6,7,8-tetrahydro-naphthalen-2-ylmethyl)-benzamide] | > 50 µM | 10 µM |
| CCOc1ccccc1C(=O)N(Cc1cc(C(C)(C)C)cc(C(C)(C)C)c1)c1cccnc1 [Example 74, N-(3,5-Di-tert-butyl-benzyl)-2-ethoxy-N-pyridin-3-yl-benzamide] | > 50 µM | 11.6 µM |
| CCOc1ccccc1C(=O)N(Cc1cc(Br)cc(Br)c1)c1cccnc1 [Example 75, N-(3,5-Dibromo-benzyl)-2-ethoxy-N-pyridin-3-yl-benzamide] | > 50 µM | 14.9 µM |
| CCOc1ccccc1C(=O)N(Cc1ccc(OC)cc1)c1cccnc1 [Example 76, 2-Ethoxy-N-(4-methoxy-benzyl)-N-pyridin-3-yl-benzamide] | > 50 µM | 33.3 µM |
| CCOc1ccccc1C(=O)N(Cc1cccc(OC)c1)c1cccnc1 [Example 77, 2-Ethoxy-N-(3-methoxy-benzyl)-N-pyridin-3-yl-benzamide] | > 50 µM | 44.5 µM |
| CCOc1ccccc1C(=O)N(Cc1ccc(Cl)c(Cl)c1)c1cccnc1 [Example 78, N-(3,4-Dichloro-benzyl)-2-ethoxy-N-pyridin-3-yl-benzamide] | > 50 µM | 10.3 µM |
| CCOc1ccccc1C(=O)N(Cc1ccc2ccccc2c1)c1cccnc1 [Example 79, 2-Ethoxy-N-naphthalen-2-ylmethyl-N-pyridin-3-yl-benzamide] | > 50 µM | 17 µM |
| CCOc1ccccc1C(=O)N(Cc1ccc(C(C)(C)C)cc1)c1cccnc1 [Example 80, N-(4-tert-Butyl-benzyl)-2-ethoxy-N-pyridin-3-yl-benzamide] | > 50 µM | 19.2 µM |
| CCOc1ccccc1C(=O)N(Cc1ccccc1-c1ccccc1)c1cccnc1 [Example 81, N-Biphenyl-2-ylmethyl-2-ethoxy-N-pyridin-3-yl-benzamide] | > 50 µM | 0.9 µM |
| CCCCOc1ccc(N(Cc2ccc3c(c2)C(C)(C)CCC3(C)C)C(=O)CN(CC)CC)cn1 [Example 82, N-(6-Butoxy-pyridin-3-yl)-2-diethylamino-N-(5,5,8,8-tetramethyl-5,6,7,8-tetrahydro-naphthalen-2-ylmethyl)-acetamide] | > 50 µM | 36.8 µM |
| CCCCOc1ccc(N(Cc2ccc(C(C)(C)C)cc2)C(=O)CN(CC)CC)cn1 [Example 83, N-(6-Butoxy-pyridin-3-yl)-N-(4-tert-butyl-benzyl)-2-diethylamino-acetamide] | > 50 µM | 34 µM |
| CCCCOc1ccc(N(Cc2ccccc2-c2ccccc2)C(=O)CN(CC)CC)cn1 [Example 84, N-Biphenyl-2-ylmethyl-N-(6-butoxy-pyridin-3-yl)-2-diethylamino-acetamide] | > 50 µM | 43.7 µM |
| COc1ccccc1N(Cc1ccc2ccccc2c1)C(=O)c1ccccc1 [Example 85, N-(2-Methoxy-phenyl)-N-naphthalen-2-ylmethyl-benzamide] | > 50 µM | 10.2 µM |
| COc1ccc(CN(C(=O)c2ccccc2)c2ccccc2OC)cc1 [Example 86, N-(4-Methoxy-benzyl)-N-(2-methoxy-phenyl)-benzamide] | > 50 µM | 30.1 µM |
| COc1cccc(CN(C(=O)c2ccccc2)c2ccccc2OC)c1 [Example 87, N-(3-Methoxy-benzyl)-N-(2-methoxy-phenyl)-benzamide] | > 50 µM | 19.2 µM |
| COc1ccccc1N(Cc1ccccc1-c1ccccc1)C(=O)c1ccccc1 [Example 88, N-Biphenyl-2-ylmethyl-N-(2-methoxy-phenyl)-benzamide] | > 50 µM | 16.5 µM |
| CCN(CC)CCCc1ccc(N(Cc2ccc3c(c2)C(C)(C)CCC3(C)C)C(=O)c2ccccc2)cc1 [Example 89, N-[4-(3-Diethylamino-propyl)-phenyl]-N-(5,5,8,8-tetramethyl-5,6,7,8-tetrahydro-naphthalen-2-ylmethyl)-benzamide] | > 50 µM | 13.2 µM |
| CCOc1ccccc1C(=O)N(Cc1ccccc1-c1ccccc1)c1ccc(OC)nc1 [Example 90, N-Biphenyl-2-ylmethyl-2-ethoxy-N-(6-methoxy-pyridin-3-yl)-benzamide] | > 50 µM | 31.7 µM |

The next lines start with results.

| IC50 [1] | Structure (SMILES) | IC50 [2] |
| --- | --- | --- |
| > 50 µM | COc1ccc(N(Cc2ccccc2-c2ccccc2)C(=O)c2ccccc2OC)cn1 [Example 91, N-Biphenyl-2-ylmethyl-2-methoxy-N-(6-methoxy-pyridin-3-yl)-benzamide] | 46.5 µM |
| > 50 µM | COc1ccccc1C(=O)N(Cc1cccnc1)Cc1ccccc1-c1ccccc1 [Example 92, N-Biphenyl-2-ylmethyl-2-methoxy-N-pyridin-3-ylmethyl-benzamide] | 6.3 µM |
| > 50 µM | O=C(c1cc2ccccc2s1)N(Cc1ccccc1-c1ccccc1)c1ccncc1 [Example 93, Benzo[b]thiophene-2-carboxylic acid biphenyl-2-ylmethyl-pyridin-4-yl-amide] | 10.5 µM |
| > 50 µM | COc1ccc(N(Cc2ccccc2-c2ccccc2)C(=O)c2ccccc2[N+](=O)[O-])cn1 [Example 94, N-Biphenyl-2-ylmethyl-N-(6-methoxy-pyridin-3-yl)-2-nitro-benzamide] | 24.8 µM |
| > 50 µM | CCOc1ccc(C(=O)N(Cc2ccccc2-c2ccccc2)c2ccc(OC)nc2)cc1 [Example 95, N-Biphenyl-2-ylmethyl-4-ethoxy-N-(6-methoxy-pyridin-3-yl)-benzamide] | 11.4 µM |
| > 50 µM | CCOc1ccccc1C(=O)N(Cc1cccnc1)Cc1ccccc1-c1ccccc1 [Example 96, N-Biphenyl-2-ylmethyl-2-ethoxy-N-pyridin-3-ylmethyl-benzamide] | 7.5 µM |
| > 50 µM | O=C(c1cccc2c1OCO2)N(Cc1cccnc1)Cc1ccccc1-c1ccccc1 [Example 97, Benzo[1,3]dioxole-4-carboxylic acid biphenyl-2-ylmethyl-pyridin-3-ylmethyl-amide] | 7.8 µM |
| > 50 µM | O=C(c1ccccc1Br)N(Cc1cccnc1)Cc1ccccc1-c1ccccc1 [Example 98, N-Biphenyl-2-ylmethyl-2-bromo-N-pyridin-3-ylmethyl-benzamide] | 8.5 µM |
| > 50 µM | O=C(c1sc2ccccc2c1Cl)N(Cc1cccnc1)Cc1ccccc1-c1ccccc1 [Example 99, 3-Chloro-benzo[b]thiophene-2-carboxylic acid biphenyl-2-ylmethyl-pyridin-3-ylmethyl-amide] | 24.7 µM |
| > 50 µM | O=C(c1ccccc1[N+](=O)[O-])N(Cc1cccnc1)Cc1ccccc1-c1ccccc1 [Example 100, N-Biphenyl-2-ylmethyl-2-nitro-N-pyridin-3-ylmethyl-benzamide] | 45.8 µM |
| > 50 µM | O=C(c1ccccc1OCc1ccccc1)N(Cc1cccnc1)Cc1ccccc1-c1ccccc1 [Example 101, 2-Benzyloxy-N-biphenyl-2-ylmethyl-N-pyridin-3-ylmethyl-benzamide] | 10.8 µM |
| > 50 µM | CCOc1ccc(C(=O)N(Cc2cccnc2)Cc2ccccc2-c2ccccc2)cc1 [Example 102, N-Biphenyl-2-ylmethyl-4-ethoxy-N-pyridin-3-ylmethyl-benzamide] | 15.9 µM |
| > 50 µM | COc1ccc(C(=O)N(Cc2ccccc2-c2ccccc2)c2ccc(OC)cc2)cc1 [Example 103, N-Biphenyl-2-ylmethyl-4-methoxy-N-(4-methoxy-phenyl)-benzamide] | 49 µM |
| > 50 µM | CCOc1ccccc1C(=O)N(Cc1ccccc1-c1ccccc1)c1ccc(OC)cc1 [Example 104, N-Biphenyl-2-ylmethyl-2-ethoxy-N-(4-methoxy-phenyl)-benzamide] | 11.9 µM |
| > 50 µM | COc1ccc(N(Cc2ccccc2-c2ccccc2)C(=O)c2ccc3c(c2)OCO3)cc1 [Example 105, Benzo[1,3]dioxole-5-carboxylic acid biphenyl-2-ylmethyl-(4-methoxy-phenyl)-amide] | 13.4 µM |

— US6780883B2, “Amide inhibitors of microsomal triglyceride transfer protein” (Warner-Lambert Company, priority 1998, dated 2004)
